Assay results as given in US7160733B2, “Ligand specific to β2-glycoprotein I and use thereof” (priority 2001, dated 2007).
Values belong to the molecule of their own block, whether it stands above or below them.

Experiments:
APS-1 = test: ELISA on solid-phase lipid-coated plate: binding of antibodies of APS patient serum APS-1; parameters: species or system human; details: Absorbance, mean ± SD, n = 3
Method: (§1) To eliminate endogenous β2-GPI in some experiments, serum samples were passed through a heparin-Sepharose column. The effluent was dialyzed against PBS and was used for ELISAs.
(§2) Synthesized oxLig-1 (50 μg/mL, 50 μL/well) was adsorbed by evaporation on a polystyrene plate (Immulon 1B; Dynex Technologies Inc.), and the plate was then blocked with 1% BSA. Serum samples (diluted 1:100 with PBS containing 0.3% BSA) were incubated in the wells with β2-GPI (15 μg/mL) or other proteins for one hour at room temperature. Antibody binding was detected with HRP-labeled anti-human IgG. Further steps were performed through a method as described in “anti-β2-GPI ELISA.”
(§3) CL (50 μg/mL, 50 μL/well) was adsorbed on a polystyrene plate (Immulon 1B), and further steps were performed through a method as described in “ELISA for antibodies against a protein-oxLig-1 complex.”

APS-2 = test: ELISA on solid-phase lipid-coated plate: binding of antibodies of APS patient serum APS-2; parameters: species or system human; details: Absorbance, mean ± SD, n = 3
Method: as §1, §2, §3

WB-CAL-1 = test: ELISA on solid-phase lipid (ligand)-coated plate: WB-CAL-1 binding in presence of β2-GPI; parameters: species or system mouse
Method: (§4) Binding to extracted lipids: A microtiter plate (Immulon 1B, Dynex Technologies Inc.) was coated with lipids extracted from LDLs (50 μg/mL, 50 μL/well) by ethanol evaporation. The wells were blocked with PBS containing 1% BSA for one hour and the wells were incubated with 30 μg/mL of β2-GPI for one hour. Then, β2-GPI binding was detected using Cof-22 and HRP-labeled anti-mouse IgG antibodies. Alternatively, an anti-β2-GPI autoantibody (Cof-22, WB-CAL-1, or EY2C9) was diluted with a 0.3% BSA-containing PBS, and the diluted antibody was added to the coated plate (1.0 μg/mL, 100 μL/well) and incubated with β2-GPI (15 μg/mL) for one hour. The binding of the antibody was detected by an HRP-labeled anti-mouse IgG /or an anti-human IgM. The color was developed with H2O2 and o-phenylenediamine, and OD was measured at 490 nm. Between these steps, extensive washing were done using PBS containing 0.05% Tween 20.
as §2, §3

β2-GPI [1] = target: T1, β2-GPI (Homo sapiens, UniProt P02749); test: ELISA on solid-phase lipid (ligand)-coated plate: β2-GPI binding detected with Cof-22; details: for β2-GPI binding to lipid: result in words (discussion)
T1 construct: β2-GPI was purified from normal human plasma as described in [35] with slight modification; from tissue; host or cells: pooled normal human plasma from healthy subjects
T1 sequence (P02749 20-345): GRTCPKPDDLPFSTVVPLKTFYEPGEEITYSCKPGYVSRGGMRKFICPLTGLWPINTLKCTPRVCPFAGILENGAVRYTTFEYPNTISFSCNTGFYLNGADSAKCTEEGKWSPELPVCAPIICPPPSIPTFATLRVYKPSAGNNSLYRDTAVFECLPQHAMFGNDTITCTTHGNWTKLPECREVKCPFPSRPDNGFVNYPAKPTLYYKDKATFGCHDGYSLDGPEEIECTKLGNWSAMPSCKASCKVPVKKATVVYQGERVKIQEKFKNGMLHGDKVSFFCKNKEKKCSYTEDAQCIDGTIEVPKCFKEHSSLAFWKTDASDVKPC
Method: as §4, §2, §3

EY2C9 = test: ELISA on solid-phase lipid (ligand)-coated plate: EY2C9 binding in presence of β2-GPI; parameters: species or system human
Method: as §4, §2, §3

anti-β2-GPI antibodies = test: ELISA of the anti-β2-GPI antibodies by use of a ligand-coated plate (results in words); assay type: binding; details: result in words
Method: as §4, §2

J774A.1 cells = test: Liposome binding to macrophages (3H-labeled liposomes, 4° C.); assay type: cell-based, murine; details: result in words
Method: FIG. 10. Effect of phosphatidylserine (PS) or oxLig-1 content on the binding of liposomes to macrophages. A monolayer of J774.A1 cells was incubated for 2 hours at 4° C. with Celgrosser-P medium containing ^3H-labeled liposomes (50 nmol lipid/well). Open circle represents PS-liposomes; closed circle represents PS-Chol-liposomes; open square represents oxLig-1-liposomes; and closed square represents oxLig-1-Chol-liposomes. Data are indicated as the mean± SD of triplicate samples.
FIG. 11. β2-GPI and anti-β2-GPI monoclonal antibody-dependent binding of ligand-containing liposomes to macrophage. A monolayer of J774.A1 cells was incubated for 2 hours at 4° C. with Celgrosser-P medium containing ^3H-labeled liposomes (50 nmol lipid/well) and WB-CAL-1, in the presence or absence of β2-GPI (200 μg/ml). • A: Binding of PS-liposomes (PS: 50 mol %,) to J774.A1. cells in the presence (closed square) or absence (open square) of β2-GPI (200 μg/ml) • B: Binding of oxLig-1-liposomes (oxLig-1: 40 mol %) to J774.A1 cells in the presence (black bar) or absence (white bar) of β2-GPI (200 μg/ml). • C: A monolayer of J774.A1 cells was incubated for 2 hours at 4° C. with Celgrosser-P medium containing ^3H-labeled synthesized oxLig-1-liposomes (50 nmol lipid/well) and WB-CAL-1, in the presence or absence of β2-GPI (200 μg/ml). Binding of synthesized oxLig-1-liposomes in the absence of β2-GPI and WB-CAL-1 (open circle), binding of synthesized oxLig-1-liposomes in the presence of β2-GPI (open square), binding of synthesized oxLig-1-liposomes in the presence of WB-CAL-1 (closed square), and binding of synthesized oxLig-1-liposomes in the presence of both β2-GPI and WB-CAL-1 (closed circle). Data are indicated as the mean ± SD of triplicate samples.
A monolayer of J774.A1 cells was incubated for 2 hours at 4° C. with Celgrosser-P medium containing [^3H]-labeled liposomes (containing a predetermined ligand, 50 nmol lipid/well). DPPS-containing liposomes (open squares), oxLig-1-containing liposomes (closed squares), oxLig-2-containing liposomes (closed circles), and 13-COOH-7KC-containing liposomes (closed triangles). Data are indicated as mean± SD of triplicate samples.
A monolayer of J774.A1 cells was incubated for 2 hours at 4° C. with Celgrosser-P medium containing [^3H]-labeled liposomes (containing a predetermined ligand (30 mmol %), 50 nmol lipid/well) and in the presence (black bars) or absence (white bars) of β2-GPI (200 μg/mL) and WB-CAL-1 ([…]).
A monolayer culture of murine macrophage-like cells (J774A.1) obtained from Riken Cell Bank (Tsukuba) was maintained in RPMI 1640 medium supplemented with 10% fetal carf serum (FCS). For binding experiments, the cells (8×10^5 cells/mL, RPMI1640) were dispensed in an amount of 1 mL/well into a 12-well culture plate (Sumitomo Bakelite Co., Ltd.) and were incubated for 24 hours at 37° C., then the culture broth was replaced with Celgrosser-P medium (Sumitomo Pharmaceutical Co.). After one hour of preincubation at 37° C., 50 μL of liposomes (50 nmol lipid/well) with or without β2-GPI (200 μg/mL) and WB-CAL-1 (100 μg/mL) were added to each culture, and the cells were incubated at 4° C. and/or 37° C. The wells were next washed with chilled PBS, and the cells were lysed by adding 1 mL of 0.1N NaOH. An aliquot was taken for determination of cellular proteins and of radioactivity associated with the cells. Protein concentration was determined in a manner as described above.

β2-GPI [2] = test: ELISA on solid-phase lipid (ligand)-coated plate: β2-GPI binding detected with Cof-22; parameters: species or system human; details: Experiment 2; Absorbance, mean ± SD, n = 3; synthesized oxLig-1-solidified plate, added protein 15 μg/mL
Method: as §4, §2, §3

[3] = Experiment 1, solid-phase lipid, β2-GPI 15 μg/mL, serum with β2-GPI removed
[4] = Experiment 1, Absorbance, mean ± SD, n = 3, solid-phase lipid, β2-GPI 15 μg/mL
[5] = absorbance at 490 nm, mean ± SD (n = 3), solid-phase ligand not methylated
[6] = Experiment 2, synthesized oxLig-1-solidified plate, added protein 15 μg/mL
[7] = Experiment 2, Absorbance, mean ± SD, n = 3, synthesized oxLig-1-solidified plate, added protein 15 μg/mL

Molecule: CCCCC/C=C\C/C=C\C/C=C\C/C=C\CCCC(=O)O[C@H](COC(=O)CCCCCCCCCCCCCCC)COP(=O)([O-])OCC[N+](C)(C)C [PAPC, 1-Palmitoyl-2-arachidonoyl-phosphatidylcholine, reference compound]
- Binding of β2-GPI-dependent aCL, APS-1 (APS-1; [3]): 0.000 ± 0.001
- Binding of β2-GPI-dependent aCL, APS-2 (APS-2; [3]): 0.010 ± 0.002
- Binding of β2-GPI-dependent aCL, WB-CAL-1 (WB-CAL-1; [4]): 0.012 ± 0.001
- Binding of β2-GPI-dependent aCL, Cof-22 (β2-GPI [1]; [4]): 0.019 ± 0.003
- Binding of β2-GPI-dependent aCL, EY2C9 (EY2C9; [4]): 0.011 ± 0.003

Molecule: CC(C)CCC[C@@H](C)[C@H]1CC[C@H]2[C@@H]3C(=O)C=C4C[C@@H](OC(=O)CCCCCCCC(=O)CCC(=O)O)CC[C@]4(C)[C@H]3CC[C@]12C [oxLig-2, 4,12-dioxo-12-(7-ketocholest-5-en-3β-yloxy)dodecanoic acid]
- direct binding of liposomes to macrophages (J774A.1 cells; J774A.1 cells, 2 hours at 4° C., 50 nmol lipid/well, without β2-GPI and antibody): relatively low or negligible small
- binding of liposomes to macrophages after methylation of the ligand (J774A.1 cells; liposomes containing methylated ligand, with β2-GPI and WB-CAL-1, FIGS. 20C and 20D): substantially no binding
- uptake of ligand-containing liposomes to J774A.1 cells in the presence of both β2-GPI and WB-CAL-1 (J774A.1 cells; liposomes containing the ligand, compared with cholesteryl linoleate-liposomes (control), FIG. 20): significantly enhanced
- WB-CAL-1 binding, No treatment (WB-CAL-1; [5]): 0.518 +/− 0.023
- binding of the anti-β2-GPI autoantibodies (WB-CAL-1 and EY2C9) to solid-phase ligand (anti-β2-GPI antibodies; ligand-coated plate): significant binding
- β2-GPI binding (Cof-22 binding), No treatment (β2-GPI [1]; [5]): 1.002 +/− 0.084
- β2-GPI binding to lipid (β2-GPI [1]): significant bonding
- EY2C9 binding, No treatment (EY2C9; [5]): 1.018 +/− 0.121

Second part, the molecule after the results:

- binding of the three antibodies (WB-CAL-1, EY2C9, mouse monoclonal anti-β2-GPI antibody) to immobilized lipid (anti-β2-GPI antibodies): did not bind
- β2-GPI binding to lipid (β2-GPI [1]): did not bind
Molecule: CC(C)CCC[C@@H](C)[C@H]1CC[C@H]2[C@@H]3CC=C4C[C@@H](O)CC[C@]4(C)[C@H]3CC[C@]12C [cholesterol, Cholesterol, reference compound]

- Binding of protein-dependent oxLig-1 antibody, APS-1 (APS-1; [6]): 1.043 ± 0.054
- Binding of protein-dependent oxLig-1 antibody, APS-2 (APS-2; [6]): 0.755 ± 0.024
- Binding of protein-dependent oxLig-1 antibody, WB-CAL-1 (WB-CAL-1; [7]): 0.812 ± 0.023
- Binding of protein-dependent oxLig-1 antibody, Cof-22 (β2-GPI [2]): 1.007 ± 0.031
- Binding of protein-dependent oxLig-1 antibody, EY2C9 (EY2C9; [7]): 1.147 ± 0.028
B1: β2-GPI: β2-Glycoprotein I purified from normal human plasma (protein, UniProt P02749 20-345, looked up)
Beta-2-glycoprotein 1: GRTCPKPDDLPFSTVVPLKTFYEPGEEITYSCKPGYVSRGGMRKFICPLTGLWPINTLKCTPRVCPFAGILENGAVRYTTFEYPNTISFSCNTGFYLNGADSAKCTEEGKWSPELPVCAPIICPPPSIPTFATLRVYKPSAGNNSLYRDTAVFECLPQHAMFGNDTITCTTHGNWTKLPECREVKCPFPSRPDNGFVNYPAKPTLYYKDKATFGCHDGYSLDGPEEIECTKLGNWSAMPSCKASCKVPVKKATVVYQGERVKIQEKFKNGMLHGDKVSFFCKNKEKKCSYTEDAQCIDGTIEVPKCFKEHSSLAFWKTDASDVKPC
